Measurements from PubChem BioAssay AID1259407 (Chemical Carcinogenesis Research Information System (CCRIS), 2018).
Activity calls are given as the source filed them. How the calls were made is not given here.

Tested on: CCRIS mutagenicity, Ames/micronucleus/aberration tests
Test: CCRIS mutagenicity studies

Measured: mutagenic call

CCCCC(CC)COC(=O)c1ccc(N(C)N=O)cc1 (stereo not given)
inactive: Test System: AMES SALMONELLA TYPHIMURIUM, Strain/Indicator: TA98, Metabolic Activation: HAMSTER, LIVER, S-9, AROCLOR 1254, Method: PREINCUBATION inactive; negative | Test System: AMES SALMONELLA TYPHIMURIUM, Strain/Indicator: TA98, Metabolic Activation: HAMSTER, LIVER, S-9, AROCLOR 1254, Method: STANDARD PLATE inactive; negative | Test System: AMES SALMONELLA TYPHIMURIUM, Strain/Indicator: TA98, Metabolic Activation: NONE, Method: PREINCUBATION inactive; negative | Test System: AMES SALMONELLA TYPHIMURIUM, Strain/Indicator: TA98, Metabolic Activation: NONE, Method: STANDARD PLATE inactive; negative | Test System: AMES SALMONELLA TYPHIMURIUM, Strain/Indicator: TA98, Metabolic Activation: RAT, LIVER, S-9, AROCLOR 1254, Method: PREINCUBATION inactive; negative | Test System: AMES SALMONELLA TYPHIMURIUM, Strain/Indicator: TA98, Metabolic Activation: RAT, LIVER, S-9, AROCLOR 1254, Method: STANDARD PLATE inactive; negative | Test System: AMES SALMONELLA TYPHIMURIUM, Strain/Indicator: TA100, Metabolic Activation: HAMSTER, LIVER, S-9, AROCLOR 1254 (1.5 OR 3.6 MG), Method: PREINCUBATION inactive; negative | Test System: AMES SALMONELLA TYPHIMURIUM, Strain/Indicator: TA100, Metabolic Activation: HAMSTER, LIVER, S-9, AROCLOR 1254, Method: PREINCUBATION inactive; negative | Test System: AMES SALMONELLA TYPHIMURIUM, Strain/Indicator: TA100, Metabolic Activation: HAMSTER, LIVER, S-9, AROCLOR 1254, Method: STANDARD PLATE inactive; negative | Test System: AMES SALMONELLA TYPHIMURIUM, Strain/Indicator: TA100, Metabolic Activation: NONE, Method: PREINCUBATION inactive; negative | Test System: AMES SALMONELLA TYPHIMURIUM, Strain/Indicator: TA100, Metabolic Activation: NONE, Method: STANDARD PLATE inactive; negative | Test System: AMES SALMONELLA TYPHIMURIUM, Strain/Indicator: TA100, Metabolic Activation: RAT, LIVER, S-9, AROCLOR 1254 (1.5 OR 2.2 MG), Method: PREINCUBATION inactive; negative | Test System: AMES SALMONELLA TYPHIMURIUM, Strain/Indicator: TA100, Metabolic Activation: RAT, LIVER, S-9, AROCLOR 1254, Method: PREINCUBATION inactive; negative | Test System: AMES SALMONELLA TYPHIMURIUM, Strain/Indicator: TA100, Metabolic Activation: RAT, LIVER, S-9, AROCLOR 1254, Method: STANDARD PLATE inactive; negative | Test System: AMES SALMONELLA TYPHIMURIUM, Strain/Indicator: TA1535, Metabolic Activation: HAMSTER, LIVER, S-9, AROCLOR 1254 (1.5 OR 3.6 MG), Method: PREINCUBATION inactive; negative | Test System: AMES SALMONELLA TYPHIMURIUM, Strain/Indicator: TA1535, Metabolic Activation: HAMSTER, LIVER, S-9, AROCLOR 1254, Method: PREINCUBATION inactive; negative | Test System: AMES SALMONELLA TYPHIMURIUM, Strain/Indicator: TA1535, Metabolic Activation: HAMSTER, LIVER, S-9, AROCLOR 1254, Method: STANDARD PLATE inactive; negative | Test System: AMES SALMONELLA TYPHIMURIUM, Strain/Indicator: TA1535, Metabolic Activation: NONE, Method: PREINCUBATION inactive; negative | Test System: AMES SALMONELLA TYPHIMURIUM, Strain/Indicator: TA1535, Metabolic Activation: NONE, Method: STANDARD PLATE inactive; negative | Test System: AMES SALMONELLA TYPHIMURIUM, Strain/Indicator: TA1535, Metabolic Activation: RAT, LIVER, S-9, AROCLOR 1254 (1.5 OR 2.2 MG), Method: PREINCUBATION inactive; negative | Test System: AMES SALMONELLA TYPHIMURIUM, Strain/Indicator: TA1535, Metabolic Activation: RAT, LIVER, S-9, AROCLOR 1254, Method: PREINCUBATION inactive; negative | Test System: AMES SALMONELLA TYPHIMURIUM, Strain/Indicator: TA1535, Metabolic Activation: RAT, LIVER, S-9, AROCLOR 1254, Method: STANDARD PLATE inactive; negative | Test System: AMES SALMONELLA TYPHIMURIUM, Strain/Indicator: TA1537, Metabolic Activation: HAMSTER, LIVER, S-9, AROCLOR 1254, Method: PREINCUBATION inactive; negative | Test System: AMES SALMONELLA TYPHIMURIUM, Strain/Indicator: TA1537, Metabolic Activation: HAMSTER, LIVER, S-9, AROCLOR 1254, Method: STANDARD PLATE inactive; negative | Test System: AMES SALMONELLA TYPHIMURIUM, Strain/Indicator: TA1537, Metabolic Activation: NONE, Method: PREINCUBATION inactive; negative | Test System: AMES SALMONELLA TYPHIMURIUM, Strain/Indicator: TA1537, Metabolic Activation: NONE, Method: STANDARD PLATE inactive; negative | Test System: AMES SALMONELLA TYPHIMURIUM, Strain/Indicator: TA1537, Metabolic Activation: RAT, LIVER, S-9, AROCLOR 1254, Method: PREINCUBATION inactive; negative | Test System: AMES SALMONELLA TYPHIMURIUM, Strain/Indicator: TA1537, Metabolic Activation: RAT, LIVER, S-9, AROCLOR 1254, Method: STANDARD PLATE inactive; negative | Test System: AMES SALMONELLA TYPHIMURIUM, Strain/Indicator: TA1538, Metabolic Activation: HAMSTER, LIVER, S-9, AROCLOR 1254, Method: PREINCUBATION inactive; negative | Test System: AMES SALMONELLA TYPHIMURIUM, Strain/Indicator: TA1538, Metabolic Activation: HAMSTER, LIVER, S-9, AROCLOR 1254, Method: STANDARD PLATE inactive; negative | Test System: AMES SALMONELLA TYPHIMURIUM, Strain/Indicator: TA1538, Metabolic Activation: NONE, Method: PREINCUBATION inactive; negative | Test System: AMES SALMONELLA TYPHIMURIUM, Strain/Indicator: TA1538, Metabolic Activation: NONE, Method: STANDARD PLATE inactive; negative | Test System: AMES SALMONELLA TYPHIMURIUM, Strain/Indicator: TA1538, Metabolic Activation: RAT, LIVER, S-9, AROCLOR 1254, Method: PREINCUBATION inactive; negative | Test System: AMES SALMONELLA TYPHIMURIUM, Strain/Indicator: TA1538, Metabolic Activation: RAT, LIVER, S-9, AROCLOR 1254, Method: STANDARD PLATE inactive; negative | Test System: MOUSE LYMPHOMA, Strain/Indicator: L5178Y (TK+/TK-), Metabolic Activation: HAMSTER, LIVER, S-9, AROCLOR 1254, Method: SUSPENSION/PLATE inactive; negative
